Test results taken from patent publication US9453026B2, “ACC inhibitors and uses thereof” (Gilead Apollo, Inc., priority 2011, dated 2016).
In brackets after ≈: the same amount, converted by molar mass. Where two headings read alike, the source gives them in different places.

What was measured:
[1] = test system: ACC1; settings: ACC1 isolated from rat, mouse, monkey and human; cited from earlier work
[2] = test system: ACC2; settings: ACC2 isolated from rat, mouse, monkey and human; cited from earlier work
[3] = test system: fatty acid synthesis; experiment: In Vivo Fatty Acid Synthesis Study ([C14]-acetate incorporated into rat liver tissue); settings: FIG. 16
Experimental: Compounds of the present invention were also assayed in an In Vivo Fatty Acid Synthesis Study as described by Harwood et al. “Isozyme-nonselective N-Substituted Bipiperidylcarboxamide Acetyl-CoA Carboxylase Inhibitors Reduce Tissue Malonyl-CoA Concentrations, Inhibit Fatty Acid Synthesis, and Increase Fatty Acid Oxidation in Cultured Cells and in Experimental Animals” Journal of Biological Chemistry (2008) 278, 37099-37111. An exemplary procedure for the assay, which measures the amount of radioactive [C^14]-acetate incorporated into rat liver tissue, follows.
Animals given food ad water ad libitum were treated orally at a volume of 1.0 mL/200 g body weight (rat) with either an aqueous solution containing 0.5% methylcellulose (vehicle), or an aqueous solution containing 0.5% methylcellulose plus test compound. One to four hours after compound administration, animals received an intraperitoneal injection of 0.5 mL of [C^14]-acetate (64 uCi/mL; […]). […] The pooled organic fractions were transferred to liquid scintillation vials, dried under nitrogen, dissolved in 7 mL of Aquasol liquid scintillation fluid, and assessed for radioactivity using a Beckman 6500 liquid scintillation counter. Results were recorded as disintigrations per minute (DPM) per milligram of tissue.

[4] = molecular target: ACC1 (Homo sapiens, UniProt Q13085); experiment: In vitro ACC1 inhibition assay (ADP-Glo); type: biochemical; settings: read-out: ACC1
Method in brief: (§1)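 Enzyme (human ACC1 or ACC2) and compound, serially diluted 1:3 over 11 points from a 600 uM DMSO stock, were preincubated 15 min before substrate addition.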

[5] = molecular target: ACC2 (Homo sapiens, UniProt O00763); experiment: In vitro ACC2 inhibition assay (ADP-Glo); type: biochemical; settings: read-out: ACC2
Sequence of ACC2 (Homo sapiens, UniProt O00763) (O00763 whole entry, species assumed): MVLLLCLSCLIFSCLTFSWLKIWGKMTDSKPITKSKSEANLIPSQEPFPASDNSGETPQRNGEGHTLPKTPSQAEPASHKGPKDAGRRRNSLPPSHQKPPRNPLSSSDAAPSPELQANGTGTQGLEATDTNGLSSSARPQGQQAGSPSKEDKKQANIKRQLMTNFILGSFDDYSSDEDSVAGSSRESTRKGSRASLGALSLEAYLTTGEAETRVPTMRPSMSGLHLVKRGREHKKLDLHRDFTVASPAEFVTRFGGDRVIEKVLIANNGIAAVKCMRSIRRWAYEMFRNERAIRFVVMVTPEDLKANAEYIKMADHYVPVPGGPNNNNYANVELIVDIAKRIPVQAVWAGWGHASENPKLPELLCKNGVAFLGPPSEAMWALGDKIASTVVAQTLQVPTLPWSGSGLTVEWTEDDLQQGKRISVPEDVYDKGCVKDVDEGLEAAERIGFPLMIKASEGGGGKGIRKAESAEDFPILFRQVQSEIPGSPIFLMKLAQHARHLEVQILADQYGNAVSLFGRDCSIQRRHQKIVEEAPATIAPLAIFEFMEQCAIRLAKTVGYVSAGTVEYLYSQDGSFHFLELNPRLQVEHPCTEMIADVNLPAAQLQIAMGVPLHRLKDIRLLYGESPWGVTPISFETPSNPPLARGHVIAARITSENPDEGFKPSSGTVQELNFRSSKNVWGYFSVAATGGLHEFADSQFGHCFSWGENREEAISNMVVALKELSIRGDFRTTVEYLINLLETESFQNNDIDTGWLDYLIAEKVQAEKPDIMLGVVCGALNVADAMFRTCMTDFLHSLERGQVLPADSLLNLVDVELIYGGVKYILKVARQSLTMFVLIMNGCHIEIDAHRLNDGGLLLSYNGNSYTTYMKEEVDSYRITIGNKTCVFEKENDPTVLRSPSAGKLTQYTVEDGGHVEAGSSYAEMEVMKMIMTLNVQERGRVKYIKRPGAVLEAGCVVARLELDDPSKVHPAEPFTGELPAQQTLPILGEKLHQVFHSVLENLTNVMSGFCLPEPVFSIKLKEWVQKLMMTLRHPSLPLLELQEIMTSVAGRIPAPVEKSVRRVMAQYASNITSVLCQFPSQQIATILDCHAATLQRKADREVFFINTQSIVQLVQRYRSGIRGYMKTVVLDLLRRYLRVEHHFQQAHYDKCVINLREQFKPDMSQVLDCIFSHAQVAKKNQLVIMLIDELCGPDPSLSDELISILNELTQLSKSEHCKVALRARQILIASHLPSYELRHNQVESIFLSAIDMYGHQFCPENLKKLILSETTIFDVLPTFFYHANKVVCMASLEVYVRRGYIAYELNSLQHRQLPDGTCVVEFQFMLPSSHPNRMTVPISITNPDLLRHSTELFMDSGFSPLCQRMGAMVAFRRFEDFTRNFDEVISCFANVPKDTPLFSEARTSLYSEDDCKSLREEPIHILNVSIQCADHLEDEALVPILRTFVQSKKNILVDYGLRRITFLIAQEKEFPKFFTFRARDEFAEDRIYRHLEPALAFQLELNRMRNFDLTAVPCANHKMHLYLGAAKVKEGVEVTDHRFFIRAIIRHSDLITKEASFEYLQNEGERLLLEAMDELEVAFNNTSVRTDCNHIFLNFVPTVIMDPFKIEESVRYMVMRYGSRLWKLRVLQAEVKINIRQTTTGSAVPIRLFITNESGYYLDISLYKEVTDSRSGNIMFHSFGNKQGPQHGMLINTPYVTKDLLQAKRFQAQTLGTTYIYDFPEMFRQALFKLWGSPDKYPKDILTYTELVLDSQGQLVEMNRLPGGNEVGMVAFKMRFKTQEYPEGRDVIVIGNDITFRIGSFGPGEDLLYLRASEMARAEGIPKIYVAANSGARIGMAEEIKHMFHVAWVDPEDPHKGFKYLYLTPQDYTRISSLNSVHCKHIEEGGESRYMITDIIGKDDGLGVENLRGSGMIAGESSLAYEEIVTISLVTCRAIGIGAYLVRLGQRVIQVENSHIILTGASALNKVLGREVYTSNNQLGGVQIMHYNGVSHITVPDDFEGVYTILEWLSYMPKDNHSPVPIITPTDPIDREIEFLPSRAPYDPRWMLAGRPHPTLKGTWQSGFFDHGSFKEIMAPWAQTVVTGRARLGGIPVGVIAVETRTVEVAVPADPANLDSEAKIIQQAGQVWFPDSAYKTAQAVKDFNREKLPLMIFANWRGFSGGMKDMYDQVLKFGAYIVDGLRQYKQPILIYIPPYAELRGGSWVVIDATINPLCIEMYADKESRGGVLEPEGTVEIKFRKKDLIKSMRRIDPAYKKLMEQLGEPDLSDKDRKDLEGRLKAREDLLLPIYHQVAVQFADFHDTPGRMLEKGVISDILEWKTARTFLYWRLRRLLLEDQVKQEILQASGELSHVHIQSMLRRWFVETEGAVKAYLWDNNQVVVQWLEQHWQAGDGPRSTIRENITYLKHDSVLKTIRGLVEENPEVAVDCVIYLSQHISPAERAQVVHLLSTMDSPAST
Method in brief: as §1

[6] = test system: C. parapsilosis ATCC 22019; experiment: Anti-Fungal Activity Assay (broth microtiter MIC); type: cell-based; settings: 3 replicates, test compounds read at 48 h
Experimental: (§2) Compounds of the present invention were evaluated in an Anti-Fungal Activity Assay. An exemplary procedure for the assay, which measures the susceptibility of various Candida species to anti-fungal compounds, follows. Compounds to be tested (including fluconazole and amphotericin B) were dissolved in DMSO to obtain a solution having a concentration of 1 mg/mL. […] All species were grown from frozen stock by directly plating on to freshly prepared Sabouraud Dextrose agar (BD, Difco) and incubated overnight in ambient air at 35° C. for 24 h. A direct suspension was prepared in RPMI 1640+MOPS (Lonza, Biowhittaker) by taking individual colonies from the overnight cultures using sterile swabs soaked in sterile saline. The concentration of the suspension was determined using pre-determined standard curves. […] The original CLSI guidelines focused on reading Candida MICs after 48 h of incubation. As reading after only 24 h offers a clear advantage of patient care, QC limits are being established for all drugs at 24 h. That being said there are no known interpretive breakpoints for amphotericin B at 24 h and the current fluconazole interpretive breakpoints are based on a 48 h reading. The MIC breakpoints for the Pharmaron test compounds were recorded at 48 h, and for the soraphen the 24 h time-point was added. All MIC determinations were achieved by visually comparing the growth found in the antibiotic challenged wells to that of the growth control.

[7] = test system: C. krusei ATCC 6258; experiment: Anti-Fungal Activity Assay (broth microtiter MIC); type: cell-based; settings: 3 replicates, test compounds read at 48 h
Experimental: as §2

[8] = test system: C. albicans ATCC 90028; experiment: Anti-Fungal Activity Assay (broth microtiter MIC); type: cell-based; settings: 3 replicates, test compounds read at 48 h
Experimental: as §2

[9] = test system: LNCaP (prostate cancer cell line) cells; experiment: Cancer Cell Viability Assay; type: cell-based, human; settings: concentration of 5 uM, FIG. 5
Experimental: Compounds of the invention were also assayed in a Cancer Cell Viability Assay as described by Beckers et al. “Chemical Inhibition of Acetyl-CoA Carboxylase Induces Growth Arrest and Cytotoxicity Selectively in Cancer Cells” Cancer Res. (2007) 67, 8180-8187. An exemplary procedure for the assay, which measures the percentage of cancer cells surviving following administration of inhibitor compounds, follows.
LNCaP (prostate cancer cell line) cells plated at 4×10^5 per 6 cm dish were incubated at 37° C., and the following day they were treated with increasing concentrations of inhibitor compounds and incubated. Viable cells and the percentage of dead cells was counted and calculated every day for 5 days from day 0, using trypan blue staining.

[10] = test system: Candida species; experiment: Anti-Fungal Activity Assay, summary over Candida species; type: cell-based; settings: summary of Table 3
Experimental: as §2

[11] = test system: target protein (ACC); experiment: Thermal Shift Assay (TSA); type: binding; settings: FIG. 3
Description: 103, 43, 15835-15840, the entirety of which is incorporated herein by reference.

[12] = test system: HepG2 cells; experiment: [14C] Acetate Incorporation HepG2 Cellular Assay; type: cell-based; settings: Homo sapiens; HepG2 cells, FIG. 4; read-out: IC50, incorporation of isotopically labeled acetate into fatty acids
Experimental: Compounds of the present invention were evaluated in a [^14C] Acetate Incorporation Assay. An exemplary procedure for the assay, which measures the incorporation of isotopically labeled acetate into fatty acids, follows. HepG2 cells were maintained in T-75 flasks containing DMEM supplemented with 2 mM 1-glutamine, penicillin G (100 units/ml), streptomycin 100 μg/ml with 10% FBS and incubated in a humidified incubator with 5% CO2 at 37° C. Cells were fed every 2-3 days. On Day 1. cells were seeded in 24 well plates at a density of 1.2×10^5 cells/ml/well with the growth medium. On Day 3 the medium was replaced with fresh medium containing 10% FBS. On Day 4 the medium was replaced with 0.5 ml of fresh medium containing test compound (in DMSO; final [DMSO] is 0.5%) and the cells were incubated at 37° C. for 1 hour. To one copy of plate, 4 ul of [2-^14C]acetate (56 mCi/mmol; 1 mCi/ml; PerkinElmer) was added and the cells were incubated at 37° C., 5% CO2 for 5 hrs. To a second copy of plate, 4 ul of cold acetate were added and the cells were incubated at 37° C., 5% CO2 for 5 hrs. This plate was used for protein concentration measurement. Medium was removed and placed in a 15 ml centrifuge tube (BD, Falcon/352096). Cells were rinsed with 1 ml PBS, then aspirated, and the rinse and aspiration steps were repeated. 0.5 ml of 0.1N NaOH were added to each well and let sit at RT to dissolve cell monolayer. The remaining cell suspension was pooled with medium. For the protein determination plate, an aliquot was removed for protein determination (25 ul). […] 5 ml petroleum ether was added per tube, shaken vigorously, centrifuged at 1000 rpm for 5 min, and 500 uL of the petroleum ether layer was transferred to tubes for Microbeta reading, then 2 ml Aquasol-2 were added to each tube, the tubes were shaken and counted with a Microbeta Liquid Scintillation Counter (Perkin Elmer).
The remaining petroleum ether layer was discarded and the aqueous phase reserved for fatty acid extractions. […] 2 ml of Aquasol-2 was added to each vial, and the vials were shaken and counted on a scintillation counter.

[13] = test system: ACC; experiment: IC50 quoted for Soraphen A in the thermal shift text; type: biochemical
[14] = Lodderomyces parapsilosis, ATCC22019, 48 h, read-out: MIC
[15] = Pichia kudriavzevii, ATCC6258, 48 h, read-out: MIC
[16] = Candida albicans, ATCC90028, 48 h, read-out: MIC

Row | IC50 [4] [nM] | IC50 [5] [nM] | MIC [6] [µg/mL] | MIC [6, 14] [µg/mL] | MIC [7] [µg/mL] | MIC [7, 15] [µg/mL] | MIC [8] [µg/mL] | MIC [8, 16] [µg/mL] | anti-fungal activity MICs [10] | IC50 [12] [nM] | Compound | IC50 [1] [nM] | IC50 [2] [nM] | fatty acid (FA) synthesis in rats [3] | cell population growth [9] | thermal melting point change compared with Soraphen A [11] | IC50 [13] [nM]
1 | – | – | – | – | – | – | – | – | – | – | O=C(c1c2ccccc2cc2ccccc12)N1CCC(N2CCC[C@@H](C(=O)N3CCOCC3)C2)CC1 [CP-640186] | ~60 | ~60 | – | – | – | –
2 | < 100 | < 100 | – | – | – | – | – | – | – | – | COc1ccccc1[C@H](Cn1c(=O)n(C(C)(C)C(=O)O)c(=O)c2c(C)c(-c3ncco3)sc21)O[C@H]1CC[C@@H](O)CC1 [I-278, 2-[1-[(2R)-2-[(4-hydroxycyclohexyl)oxy]-2-(2-methoxyphenyl)ethyl]-5-methyl-6-(1,3-oxazol-2-yl)-2,4-doxo-1H,2H,3H,4H-thieno[2,3-d]pyrimidin-3-yl]-2-methylpropanoic acid] | – | – | dose-dependent decrease in FA synthesis | – | – | –
3 | < 100 | < 100 | 8 (≈ 15.2 µM) | 8 (≈ 15.2 µM) | 2 (≈ 3.79 µM) | 2 (≈ 3.79 µM) | 2 (≈ 3.79 µM) | 2 (≈ 3.79 µM) | low ug/mL range | < 100 | COc1ccccc1[C@@H](Cn1c(=O)n(C(C)(C)C(=O)O)c(=O)c2c(C)c(-c3ncco3)sc21)OC(C)C [I-158, 2-[1-[(2S)-2-(2-methoxyphenyl)-2-(propan-2-yloxy)ethyl]-5-methyl-6-(1,3-oxazol-2-yl)-2,4-dioxo-1H,2H,3H,4H-thieno[2,3-d]pyrimidin-3-yl]-2-methylpropanoic acid] | – | – | – | completely inhibit cell population growth | equivalent to that of Soraphen A | –
4 | < 100 | < 100 | 8 (≈ 15.2 µM) | 8 (≈ 15.2 µM) | 2 (≈ 3.8 µM) | 2 (≈ 3.8 µM) | 2 (≈ 3.8 µM) | 2 (≈ 3.8 µM) | low ug/mL range | < 100 | COc1ccccc1[C@H](Cn1c(=O)n(C(C)(C)C(N)=O)c(=O)c2c(C)c(-c3ncco3)sc21)OC(C)C [I-174, 2-[1-[(2R)-2-(2-methoxyphenyl)-2-(propan-2-yloxy)ethyl]-5-methyl-6-(1,3-oxazol-2-yl)-2,4-dioxo-1H,2H,3H,4H-thieno[2,3-d]pyrimidin-3-yl]-2-methylpropanamide] | – | – | – | – | equivalent to that of Soraphen A | –
5 | – | – | – | – | – | – | – | – | – | – | CO[C@H]1CCCC[C@@H](c2ccccc2)OC(=O)[C@@H](C)[C@@]2(O)O[C@H]([C@@H](C)[C@H](O)[C@H]2OC)[C@@H](C)/C=C/[C@H]1OC [Soraphen A] | – | – | – | – | – | 4
